The target in assay [1] is T1, AibH1H2 (Rhodococcus wratislaviensis, UniProt A0A402C2Q3).
T1 construct: gene Rhow_000803; recombinant, E. coli BL21(DE3), pET-Duet-AibH1H2 with GroEL/ES-TF; His6-tagged; (alpha-beta)2 heterotetramer; Mn-grown (MnAibH1H2), Fe(II) added; with 2-aminoisobutyric acid hydroxylase subunit AibH1 (amidohydrolase family protein)
The experiment in a line: GC-MS of silylated D-MeSer product. As to conditions: preliminary estimate; O2, ascorbate as reductant, 1 equiv Fe(II) added to Mn-grown enzyme; 20 mM HEPES pH 8.0, 30 °C. It counts as biochemical.

Assay [2] has as its target T2, AibH1H2 (Rhodococcus wratislaviensis, UniProt A0A402C2Q3, D342A).
T2 construct: gene Rhow_000803; recombinant, E. coli BL21(DE3), pET-Duet-AibH1H2 with GroEL/ES-TF; His6-tagged; (alpha-beta)2 heterotetramer; Mn-grown (MnAibH1H2), Fe(II) added; with 2-aminoisobutyric acid hydroxylase subunit AibH1 (amidohydrolase family protein)
The experiment in a line: enzymatic activity assay (GC-MS). Type of assay: biochemical. The settings on record: diminished activity although all metals are incorporated.

Where only a bound is given, the exact number is not on record here.

T2 sequence (A0A402C2V4 entry or part of it, stated change not applied): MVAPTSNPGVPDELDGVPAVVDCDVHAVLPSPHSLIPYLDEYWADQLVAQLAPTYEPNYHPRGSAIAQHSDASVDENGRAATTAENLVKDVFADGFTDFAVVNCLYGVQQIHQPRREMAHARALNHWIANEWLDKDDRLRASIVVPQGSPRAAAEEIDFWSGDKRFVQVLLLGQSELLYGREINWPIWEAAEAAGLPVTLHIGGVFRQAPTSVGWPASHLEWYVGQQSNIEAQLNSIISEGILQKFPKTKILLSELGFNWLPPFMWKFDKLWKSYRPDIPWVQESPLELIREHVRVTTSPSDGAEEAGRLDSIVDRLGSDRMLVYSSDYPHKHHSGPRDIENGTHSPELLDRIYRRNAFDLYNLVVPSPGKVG
T2 sequence (A0A402C2Q3 entry or part of it D342A): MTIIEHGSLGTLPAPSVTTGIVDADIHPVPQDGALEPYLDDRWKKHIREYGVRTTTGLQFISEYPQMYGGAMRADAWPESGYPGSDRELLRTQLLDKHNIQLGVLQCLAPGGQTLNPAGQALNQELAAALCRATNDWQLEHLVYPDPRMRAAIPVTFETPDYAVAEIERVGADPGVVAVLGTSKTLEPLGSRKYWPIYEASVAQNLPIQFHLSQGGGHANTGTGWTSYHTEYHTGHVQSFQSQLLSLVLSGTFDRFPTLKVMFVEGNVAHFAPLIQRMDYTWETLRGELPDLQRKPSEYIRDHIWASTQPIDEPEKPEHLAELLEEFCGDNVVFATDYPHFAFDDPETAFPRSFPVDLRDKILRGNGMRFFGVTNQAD
T1 sequence (A0A402C2Q3 entry or part of it): as the sequence (A0A402C2Q3 entry or part of it D342A) above, with A342D counted along it
T1 sequence (A0A402C2V4 entry or part of it, further chain): as the sequence (A0A402C2V4 entry or part of it, stated change not applied) above

As for `CC(C)(N)C(=O)O` [AIB, 2-aminoisobutyric acid], at AibH1H2 [1], the Michaelis constant (Km) is over 100 mM. Moreover, the “enzymatic activity assay (GC-MS)” value on AibH1H2 [2] is listed as “upon substitution to alanine, results in protein with diminished enzymatic activity”.

The values are drawn from paper PMC10401708, “Enzymatic Hydroxylation of Aliphatic C–H Bonds by a Mn/Fe Cofactor” (Journal of the American Chemical Society, 2023).
